Laboratory results reported in patent US5834452A, “1- or 6-hydroxylated steroids” (Roussel Uclaf, priority 1996, dated 1998).

Tests used:
[1] = target: T1, Human mineralocorticoid receptor (HMR) (Homo sapiens, UniProt P08235); assay: Relative bond affinity (RBA), recombinant human mineralocorticoid receptor, charcoal dextran technique; type: binding; conditions: 24 h at 0° C.; Aldosterone = 100
T1 construct: made in house; host or cells: SF9 insect cells (baculovirus), lysate supernatant
T1 sequence (P08235 1-984): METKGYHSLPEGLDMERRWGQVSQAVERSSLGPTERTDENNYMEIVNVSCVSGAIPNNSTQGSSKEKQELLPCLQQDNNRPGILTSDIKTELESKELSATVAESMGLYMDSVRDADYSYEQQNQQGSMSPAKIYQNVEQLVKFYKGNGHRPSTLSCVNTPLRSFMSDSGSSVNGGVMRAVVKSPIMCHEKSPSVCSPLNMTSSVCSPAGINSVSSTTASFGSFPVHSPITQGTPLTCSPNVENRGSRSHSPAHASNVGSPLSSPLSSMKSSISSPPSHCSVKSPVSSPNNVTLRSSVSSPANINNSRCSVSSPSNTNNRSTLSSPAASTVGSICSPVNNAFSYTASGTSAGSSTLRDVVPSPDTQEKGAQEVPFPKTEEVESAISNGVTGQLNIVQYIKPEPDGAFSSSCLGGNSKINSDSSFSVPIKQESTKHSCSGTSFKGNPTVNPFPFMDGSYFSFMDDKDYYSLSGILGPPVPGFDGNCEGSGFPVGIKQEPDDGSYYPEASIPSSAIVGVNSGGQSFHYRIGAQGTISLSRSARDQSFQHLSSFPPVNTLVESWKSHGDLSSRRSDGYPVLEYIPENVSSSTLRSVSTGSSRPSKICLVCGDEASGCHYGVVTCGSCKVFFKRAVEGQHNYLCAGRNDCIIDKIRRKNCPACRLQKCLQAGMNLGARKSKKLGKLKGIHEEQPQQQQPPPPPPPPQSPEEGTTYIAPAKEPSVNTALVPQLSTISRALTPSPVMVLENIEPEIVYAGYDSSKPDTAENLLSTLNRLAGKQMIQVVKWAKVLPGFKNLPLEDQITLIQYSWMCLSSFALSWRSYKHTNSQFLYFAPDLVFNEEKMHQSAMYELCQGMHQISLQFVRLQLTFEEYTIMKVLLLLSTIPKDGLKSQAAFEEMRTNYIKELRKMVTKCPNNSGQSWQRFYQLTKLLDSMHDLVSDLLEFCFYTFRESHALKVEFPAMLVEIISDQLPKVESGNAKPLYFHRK
Source text: The human recombinant receptor (HGR, HPR, HAR, HMR, HER) was used.
Human mineralocorticoid receptor (HMR):
A supernatant of SF9 cells containing the recombinant human mineralocorticoid receptor was obtained according to the process described above for the progestogen receptor using the cDNA fragment described by Baulieu et al (Proc. Natl. Acad. Sci., (1991), Vol. 88, p. 10681-10685) containing the region coding for the human mineralocorticoid receptor. The cells obtained were lysed in the lysis buffer (4). The supernatant was incubated at 0° C. for 24 hours with a constant concentration (T) of tritiated aldosterone in the presence of increasing concentrations of either unlabelled aldosterone (0 to 1000×10^-9 M), or the unlabelled product to be tested (1 to 25000×10^-9 M). The concentration of bound tritiated aldosterone (B) was then measured in each incubate using the charcoal dextran adsorption technique.
Calculation of the relative bond affinity (RBA).
The following two curves were drawn: the percentage of bound tritiated hormone B/BO as a function of the logarithm of the concentration of unlabelled reference hormone or as a function of the logarithm of the concentration of unlabelled test product. The straight line of the following equation was determined: […]
The relative bond affinity (RBA) of the test product was determined by the equation: […]

[2] = test system: endometrial proliferation (uterine lace); assay: Progestomimetic activity: endometrial transformation in the rabbit (Clauberg-McPhail test); type: in vivo; parameters: key to Average uterine lace (McPhail Index): McPhail scale 0–4 with 0.5 steps (endometrial proliferation); conditions: for Progestomimetic activity: rabbit

Row | RBA, Human mineralocorticoid receptor [1] | SMILES | Progestomimetic activity ([2]; 3 μg/kg percutaneously) | Average uterine lace (McPhail Index) ([2]; rabbit, 0,003 mg/kg, s/c, day 8 to day 11) | Progestomimetic activity ([2]; 3 and 10 μg/kg orally)
1 | no or negligible RBA's | C[C@H](O)C(=O)[C@@]1(C)CC[C@H]2[C@@H]3C[C@@H](O)C4=CC(=O)CCC4=C3CC[C@@]21C [Product B, [6β, 17β-(S)]-6-hydroxy-17-(2-hydroxy-1-oxopropyl)-17-methyl-Δ^4,9-estradiene-3-one] | – | – | –
2 | – | C[C@H](O)C(=O)[C@@]1(C)CC[C@H]2[C@@H]3CCC4=CC(=O)CCC4=C3CC[C@@]21C [Trimegestone, [17β-(S)]-17-(2-hydroxy-1-oxopropyl)-17-methyl-Δ^4,9-estradiene-3-one, reference compound] | strong activity | 3,8 | strong activity
